Among the data in ChEMBL document CHEMBL3102815, “Structure Guided Optimization, in Vitro Activity, and in Vivo Activity of Pan-PIM Kinase Inhibitors” (ACS Med Chem Lett, 2013) are Ki and Activity values, retold here.

T2 sequence (Q9P1W9 whole entry): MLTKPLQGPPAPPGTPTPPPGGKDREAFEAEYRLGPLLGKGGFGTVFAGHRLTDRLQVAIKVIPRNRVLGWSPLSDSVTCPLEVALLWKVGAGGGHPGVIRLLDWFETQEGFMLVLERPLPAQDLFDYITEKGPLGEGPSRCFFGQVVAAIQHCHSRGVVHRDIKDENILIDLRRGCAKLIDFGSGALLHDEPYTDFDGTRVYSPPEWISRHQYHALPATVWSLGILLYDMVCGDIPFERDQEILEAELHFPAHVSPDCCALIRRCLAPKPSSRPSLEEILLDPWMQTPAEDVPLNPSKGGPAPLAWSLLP

The target of the first test is T1, Serine/threonine-protein kinase pim-1 (Homo sapiens, UniProt P11309). In words: Inhibition of PIM1 (unknown origin) using NH2-AGAGRSRHSSYPAGT-OH as substrate by Kinase-Glo assay. In general terms: In Kinase-Glo more light means more ATP remaining.
T1 sequence (P11309 whole entry): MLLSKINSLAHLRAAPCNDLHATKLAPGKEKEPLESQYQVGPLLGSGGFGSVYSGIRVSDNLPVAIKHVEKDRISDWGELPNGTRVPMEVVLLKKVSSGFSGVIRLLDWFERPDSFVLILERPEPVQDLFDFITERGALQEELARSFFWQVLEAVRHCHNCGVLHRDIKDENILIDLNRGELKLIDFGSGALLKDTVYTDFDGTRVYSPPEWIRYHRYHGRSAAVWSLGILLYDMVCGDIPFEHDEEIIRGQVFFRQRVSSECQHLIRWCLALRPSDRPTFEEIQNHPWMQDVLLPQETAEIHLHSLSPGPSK
With `Nc1ccc(-c2ccccn2)nc1C(=O)Nc1cnccc1N1CCC[C@H](N)C1`, the Ki (in general, a measure of affinity in units of concentration, obtained from inhibition or displacement) is under 1 nM.

As for `COc1ccccc1-c1ccc(N)c(C(=O)Nc2cnccc2N2CCC[C@H](N)C2)n1`, the Ki is under 1 nM.

`Nc1ccc(-c2ccccc2Cl)nc1C(=O)Nc1cnccc1N1CCC[C@H](N)C1`: the Ki was under 1 nM.

In the case of `Nc1ccc(-c2ccncc2)nc1C(=O)Nc1cnccc1N1CCC[C@H](N)C1`, the Ki was under 1 nM.

Turning to `Nc1ccc(-c2cccnc2)nc1C(=O)Nc1cnccc1N1CCC[C@H](N)C1`, the Ki was under 1 nM.

The next test has as its target T2, Serine/threonine-protein kinase pim-2 (Homo sapiens, UniProt Q9P1W9). Description: Inhibition of PIM2 (unknown origin) using Biotin-AGAGRSRHSSYPAGT-OH as substrate after 2 hrs by AlphaScreen assay. On the technique in general: Alpha assays give light when donor and acceptor beads are brought close together.
In the case of `Nc1ccc(-c2c(F)cccc2F)nc1C(=O)Nc1cnccc1N1CCC[C@H](N)C1`, the Ki was 0.004 nM.

For another test, the target named is T3, Serine/threonine-protein kinase pim-3 (Homo sapiens, UniProt Q86V86). In words: Inhibition of PIM3 (unknown origin).
Take `O=C(Nc1ccccc1N1CCCCC1)c1ncccc1O`: the Ki was over 12500 nM.

As to `Nc1nccnc1C(=O)Nc1cnccc1N1CCC[C@H](N)C1`, the Ki stood at 20 nM. In other words, the double-digit nanomolar range.

Regarding `CC(=O)Nc1nc(C(=O)Nc2ccncc2N2CCCCC2)cs1`, the Ki amounted to 140 nM.

For the compound `Nc1cccnc1C(=O)Nc1ccccc1N1CCCCC1`, the affinity, expressed as Ki, was 12000 nM.

Regarding `NCC1CCCN(c2ccncc2NC(=O)c2nccnc2N)C1` (racemic), affinity was put at a Ki of 50 nM.

In turn, `Nc1nccnc1C(=O)Nc1cnccc1N1CCNCC1` displayed an inhibitory constant (Ki) of 1000 nM.

Consider `CC(=O)Nc1nc(C(=O)Nc2ccccc2N2CCCCC2)cs1`, for which the Ki was determined as 230 nM. Compared with the last compound, the Ki is about 4.3-fold lower.

In turn, `NCC(=O)N1CCN(c2ccncc2NC(=O)c2nccnc2N)CC1` showed a Ki of 490 nM.

As for `Nc1ccc(-c2ccccc2C(F)(F)F)nc1C(=O)Nc1cnccc1N1CCC[C@H](N)C1`, the affinity, expressed as Ki, was 3 nM. This Ki lies about 160-fold lower than the previous one.

`Nc1cccc(C(=O)Nc2ccccc2N2CCCCC2)n1` came in with a Ki of 11000 nM.

Compound `Nc1ccc(-c2ccccn2)nc1C(=O)Nc1cnccc1N1CCC[C@H](N)C1` showed a Ki of 3 nM.

In turn, `O=C(Nc1ccccc1N1CCCCC1)c1cscn1` returned a Ki of over 12500 nM.

Compound `CC(=O)Nc1nc(C(=O)Nc2cnc(N)cc2N2CCCCC2)cs1` came in with a Ki of 1700 nM.

`NCCC(=O)N1CCN(c2ccncc2NC(=O)c2nccnc2N)CC1` registered a Ki of 180 nM.

As for `O=C(Nc1ccccc1N1CCCCC1)c1ncc[nH]1`, the Ki was over 12500 nM.

Compound `CC(=O)Nc1nc(C(=O)Nc2cnc(N)nc2N2CCCCC2)cs1` yielded a Ki of over 12500 nM.

In turn, `Nc1ccc(-c2ccncc2)nc1C(=O)Nc1cnccc1N1CCC[C@H](N)C1` returned a Ki of 5 nM.

The compound `Nc1nccnc1C(=O)Nc1ccccc1N1CCCCC1` gave a Ki of 1500 nM.

In turn, `Nc1ccc(Oc2ccccc2)nc1C(=O)Nc1cnccc1N1CCC[C@H](N)C1` came in with a Ki of 15 nM.

On to `Nc1cccnc1C(=O)Nc1cnccc1N1CCC[C@H](N)C1`, for which the Ki stood at 20 nM.

`CN1CCC(CNc2ccc3ncc(-c4cccc(OC(F)(F)F)c4)n3n2)CC1` [SGI-1776] registered a Ki of 24 nM.

In turn, `CC(=O)Nc1nc(C(=O)Nc2cnccc2N2CCCCC2)cs1` came in with a Ki of 220 nM.

Consider `Nc1ccc(-c2c(F)cccc2F)nc1C(=O)Nc1cnccc1N1CC[C@@H](O)[C@H](N)C1`, for which the affinity corresponds to a Ki of 0.007 nM.

Consider `Nc1nccc(-c2ccc(N)c(C(=O)Nc3cnccc3N3CCC[C@H](N)C3)n2)n1`, for which the affinity corresponds to a Ki of 3 nM. This Ki lies about 430-fold higher than the previous one.

Take `CC(=O)Nc1nc(C(=O)Nc2cncnc2N2CCCCC2)cs1`: the Ki is over 12500 nM.

`Nc1nccnc1C(=O)Nc1cnccc1N1CCCCC1` gave a Ki of 90 nM.

`Nc1ccc(-c2cccnc2)nc1C(=O)Nc1cnccc1N1CCC[C@H](N)C1`: the Ki was determined as 4 nM.

A further test has as its target T1, Serine/threonine-protein kinase pim-1.
Consider `O=C(Nc1ccccc1N1CCCCC1)c1ncccc1O`, for which the affinity, expressed as Ki, was 12300 nM.

Regarding `CC(=O)Nc1nc(C(=O)Nc2ccncc2N2CCCCC2)cs1`, the affinity, expressed as Ki, was 59 nM.

For `Nc1cccnc1C(=O)Nc1ccccc1N1CCCCC1`, affinity was put at a Ki of 3300 nM.

Take `NCC1CCCN(c2ccncc2NC(=O)c2nccnc2N)C1` (racemic): the Ki was 11 nM.

In the case of `Nc1nccnc1C(=O)Nc1cnccc1N1CCNCC1`, the affinity corresponds to a Ki of 810 nM.

With `NCC(=O)N1CCN(c2ccncc2NC(=O)c2nccnc2N)CC1`, the Ki came out at 122 nM.

`Nc1ccc(-c2ccccc2C(F)(F)F)nc1C(=O)Nc1cnccc1N1CCC[C@H](N)C1` gave a Ki of 3 nM.

`Nc1cccc(C(=O)Nc2ccccc2N2CCCCC2)n1` showed a Ki of 2300 nM.

The compound `O=C(Nc1ccccc1N1CCCCC1)c1cscn1` showed a Ki of 1800 nM.

Compound `CC(=O)Nc1nc(C(=O)Nc2cnc(N)cc2N2CCCCC2)cs1` gave a Ki of 1000 nM.

For `NCCC(=O)N1CCN(c2ccncc2NC(=O)c2nccnc2N)CC1`, the Ki was 56 nM. Compared with the last compound, the Ki is about 18-fold lower.

Compound `O=C(Nc1ccccc1N1CCCCC1)c1ncc[nH]1` had a Ki of over 12500 nM.

Regarding `CC(=O)Nc1nc(C(=O)Nc2cnc(N)nc2N2CCCCC2)cs1`, the Ki is over 12500 nM.

The compound `Nc1nccnc1C(=O)Nc1ccccc1N1CCCCC1` came in with a Ki of 460 nM.

`Nc1ccc(Oc2ccccc2)nc1C(=O)Nc1cnccc1N1CCC[C@H](N)C1` registered an inhibition constant Ki of 4 nM. This Ki lies about 120-fold lower than the previous one.

As for `Nc1cccnc1C(=O)Nc1cnccc1N1CCC[C@H](N)C1`, the affinity corresponds to a Ki of 18 nM.

In turn, `CC(=O)Nc1nc(C(=O)Nc2cnccc2N2CCCCC2)cs1` showed an inhibition constant (Ki) of 61 nM. This Ki lies about 3.4-fold higher than the previous one.

For the compound `Nc1ccc(-c2c(F)cccc2F)nc1C(=O)Nc1cnccc1N1CC[C@@H](O)[C@H](N)C1`, the affinity, expressed as Ki, was 0.002 nM.

In turn, `Nc1nccc(-c2ccc(N)c(C(=O)Nc3cnccc3N3CCC[C@H](N)C3)n2)n1` had a Ki of 1 nM.

Consider `CC(=O)Nc1nc(C(=O)Nc2cncnc2N2CCCCC2)cs1`, for which the Ki is over 12500 nM.

Compound `Nc1nccnc1C(=O)Nc1cnccc1N1CCCCC1` gave a Ki of 30 nM. In other words, the double-digit nanomolar range.

Another test concerns the target T3, Serine/threonine-protein kinase pim-3. In words: Inhibition of PIM3 (unknown origin) using NH2-AGAGRSRHSSYPAGT-OH as substrate by Kinase-Glo assay.
The compound `COc1ccccc1-c1ccc(N)c(C(=O)Nc2cnccc2N2CCC[C@H](N)C2)n1` displayed a Ki of under 1 nM.

Turning to `Nc1ccc(-c2ccccc2Cl)nc1C(=O)Nc1cnccc1N1CCC[C@H](N)C1`, the Ki was under 1 nM.

For the next test the target is unchanged. In words: Inhibition of PIM3 (unknown origin) using Biotin-AGAGRSRHSSYPAGT-OH as substrate after 2 hrs by AlphaScreen assay.
For the compound `Nc1ccc(-c2c(F)cccc2F)nc1C(=O)Nc1cnccc1N1CCC[C@H](N)C1`, the Ki was 0.006 nM.

For the next test, the target named is T2, Serine/threonine-protein kinase pim-2. In words: Inhibition of PIM2 (unknown origin) using NH2-AGAGRSRHSSYPAGT-OH as substrate by Kinase-Glo assay.
As to `Nc1ccc(-c2ccccc2Cl)nc1C(=O)Nc1cnccc1N1CCC[C@H](N)C1`, the Ki is under 1 nM.

For another test the target is unchanged.
Consider `O=C(Nc1ccccc1N1CCCCC1)c1ncccc1O`, for which the Ki is over 12500 nM.

For `Nc1nccnc1C(=O)Nc1cnccc1N1CCC[C@H](N)C1`, the Ki was determined as 70 nM.

As to `CC(=O)Nc1nc(C(=O)Nc2ccncc2N2CCCCC2)cs1`, the affinity, expressed as Ki, was 6300 nM.

`Nc1cccnc1C(=O)Nc1ccccc1N1CCCCC1` returned a Ki of over 12500 nM.

`NCC1CCCN(c2ccncc2NC(=O)c2nccnc2N)C1` (racemic) yielded a Ki of 700 nM.

With `Nc1nccnc1C(=O)Nc1cnccc1N1CCNCC1`, the Ki was over 12500 nM.

In the case of `CC(=O)Nc1nc(C(=O)Nc2ccccc2N2CCCCC2)cs1`, the Ki was over 12500 nM.

The compound `NCC(=O)N1CCN(c2ccncc2NC(=O)c2nccnc2N)CC1` returned a Ki of 2000 nM.

`Nc1ccc(-c2ccccc2C(F)(F)F)nc1C(=O)Nc1cnccc1N1CCC[C@H](N)C1` came in with a Ki of 7 nM.

Take `Nc1cccc(C(=O)Nc2ccccc2N2CCCCC2)n1`: the Ki was over 12500 nM.

With `Nc1ccc(-c2ccccn2)nc1C(=O)Nc1cnccc1N1CCC[C@H](N)C1`, the affinity, expressed as Ki, was 6 nM.

As to `COc1ccccc1-c1ccc(N)c(C(=O)Nc2cnccc2N2CCC[C@H](N)C2)n1`, the affinity corresponds to a Ki of 8 nM.

Compound `O=C(Nc1ccccc1N1CCCCC1)c1cscn1` yielded a Ki of over 12500 nM.

As for `CC(=O)Nc1nc(C(=O)Nc2cnc(N)cc2N2CCCCC2)cs1`, the Ki was over 12500 nM.

Regarding `NCCC(=O)N1CCN(c2ccncc2NC(=O)c2nccnc2N)CC1`, the affinity, expressed as Ki, was 680 nM.

`O=C(Nc1ccccc1N1CCCCC1)c1ncc[nH]1` returned a Ki of over 12500 nM.

As to `CC(=O)Nc1nc(C(=O)Nc2cnc(N)nc2N2CCCCC2)cs1`, the Ki was over 12500 nM.

Turning to `Nc1ccc(-c2ccncc2)nc1C(=O)Nc1cnccc1N1CCC[C@H](N)C1`, the Ki stood at 6 nM.

`Nc1nccnc1C(=O)Nc1ccccc1N1CCCCC1` came in with a Ki of 7000 nM. This Ki lies about 1200-fold higher than the previous one.

The compound `Nc1ccc(Oc2ccccc2)nc1C(=O)Nc1cnccc1N1CCC[C@H](N)C1` showed a Ki of 122 nM.

With `Nc1cccnc1C(=O)Nc1cnccc1N1CCC[C@H](N)C1`, the Ki stood at 110 nM.

The compound `CC(=O)Nc1nc(C(=O)Nc2cnccc2N2CCCCC2)cs1` registered a Ki of over 12500 nM.

Compound `Nc1ccc(-c2c(F)cccc2F)nc1C(=O)Nc1cnccc1N1CC[C@@H](O)[C@H](N)C1` gave a Ki of 0.006 nM. This lies in the picomolar range.

With `Nc1nccc(-c2ccc(N)c(C(=O)Nc3cnccc3N3CCC[C@H](N)C3)n2)n1`, the Ki worked out at 16 nM.

Compound `CC(=O)Nc1nc(C(=O)Nc2cncnc2N2CCCCC2)cs1` came in with a Ki of over 12500 nM.

For `Nc1nccnc1C(=O)Nc1cnccc1N1CCCCC1`, the Ki was 1600 nM. This counts as single-digit micromolar.

In the case of `Nc1ccc(-c2cccnc2)nc1C(=O)Nc1cnccc1N1CCC[C@H](N)C1`, the Ki amounted to 12 nM.

A further test concerns EOL1. Description: Antitumor activity against human EOL-1 cells xenografted in po dosed mouse administered daily. It counts as functional, organism-based. Background: A xenograft is tissue or cells of one species grown in another, often human tumour cells in immunodeficient mice.
Turning to `C[C@H]1CN(c2ccncc2NC(=O)c2ccc(F)c(-c3c(F)cccc3F)n2)C[C@@H](N)[C@@H]1O`, the Activity result was “Dose-dependent effect”.

In the next test the target is T1, Serine/threonine-protein kinase pim-1. In words: Inhibition of PIM1 (unknown origin) using Biotin-AGAGRSRHSSYPAGT-OH as substrate after 2 hrs by AlphaScreen assay.
In turn, `Nc1ccc(-c2c(F)cccc2F)nc1C(=O)Nc1cnccc1N1CCC[C@H](N)C1` gave a Ki of 0.002 nM.
